# US10919882B2, “Compounds for use in synthesis of peptidomimetics” (THE FEINSTEIN INSTITUTES FOR MEDICAL RESEARCH, priority 2019, dated 2021)
# Assay: Stability of HOBt aza building blocks with Boc, Fmoc or Phth alpha-amino protection
# Type: physicochemical
# Description: Assessing the Compatibility of HOBt Aza Building Blocks in the Presence of Traditional Alpha Amino Protecting Groups (e.g. Phth, Fmoc and Boc) with Other Protecting Synthesis and Stability
# The issues with stability were observed when the N-1 is protected with R=Boc or Fmoc and R′═H. This is due to the presence of NH that leads to undesirable intramolecular cyclization and formation oxadiazoles (Future Med. Chem. (2011) 3(9), 1139-1164) Org. Biomol. Chem., 2015, 13, 59-63. Boc and Fmoc form an unwanted side reaction of carboxyanhydride in peptide synthesis with acid halogenation reagent (Acc. Chem. Res. 1996, 29, 268-274; J. Am. Chem. Soc. 1996, 118, 9796-9797) and in azapeptide synthesis with hydrazine component, the oxadiazalone will be formed (Journal of Peptide Science 2013, 19, 725-729).
compound,measurement,setting,value
O=C(On1nnc2ccccc21)N(Cc1ccccc1)N1C(=O)c2ccccc2C1=O,Isolated Yield and Stability (in solution),"in solution / organic solvents, room temperature","Stable in organic solvents such as acetone, dichloromethane, acetonitrile, DMF at room temperature for weeks"
same,Isolated Yield and Stability (solid form),isolated product as solid,Stable white solid
